From patent EP0186275A2, “2-Substituted amino-4(1H)-pyrimidone derivatives, their production, and medical compositions containing them” (YAMANOUCHI PHARMACEUTICAL CO. LTD., priority 1984, dated 1986)
pIC50: −log10 of the molar value. Counter-ions that a name gives are not always drawn.

Key:
Male Wistar rats [1] = experiment: Gastric cytoprotection (ethanol ulcer rat); type: in vivo
Method: 3) Gastric cytoprotection: Male Wistar rats (about 200 […]) were starved for 24 hours and deprived of water for 18 hours prior to the experiment. Absolute ethanol (1 ml/rat) was given orally to rats one hour after p.o. administration of the test compounds. One hour later, animals were sacrificed for the measurement of gastric lesions (mm^2).

histamine H2-receptor = biological target: T1, histamine H2-receptor (Cavia porcellus, UniProt P47747); experiment: H2-Blocking activity (isolated guinea pig atrium, chronotropic response to histamine); type: cell-based; details: isolated guinea pig atrium; test drugs 30 min. before 5 x 10^-6M histamine; dose producing 50% blockade of chronotropic response; read-out: 1)H2-bloc-kade guinea pig atrium ED50
T1 construct: The atrium isolated from quinea-pigs was mounted in an organ bath; from tissue; host or cells: isolated guinea pig atrium
T1 sequence (P47747 whole entry): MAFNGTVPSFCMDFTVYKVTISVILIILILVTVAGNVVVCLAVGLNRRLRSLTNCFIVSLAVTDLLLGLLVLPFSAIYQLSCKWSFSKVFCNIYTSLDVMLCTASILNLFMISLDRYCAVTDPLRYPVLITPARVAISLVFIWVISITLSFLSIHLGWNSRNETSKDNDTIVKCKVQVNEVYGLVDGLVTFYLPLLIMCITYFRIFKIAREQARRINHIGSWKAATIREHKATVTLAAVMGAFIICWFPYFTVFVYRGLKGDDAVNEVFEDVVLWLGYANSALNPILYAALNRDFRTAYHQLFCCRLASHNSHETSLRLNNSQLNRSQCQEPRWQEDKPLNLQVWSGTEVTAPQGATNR
Method: In addition, the experiments were performed using a known compound, TZU-0460, i. e., N-[3-(3-(1-piperi- dinylmethyl)phenoxy]propyl]acetoxyacetamide hydrochloride shown by the following formula [drawing 9] HC1 disclosed in European Patent No. 24,510. • 1. Experimental procedure • 1) H2-Blocking activity:
The atrium isolated from quinea-pigs was mounted in an organ bath containing Krebs-Henseleit solution gassed with 95% 02 and 5% C02 at 37°C. The spontaneous movement of the atrium was recorded through a strain gauge (Nihon Koden, SB-1T) on a polygraph (Nihon Koden, RM-6200). The tissue was exposed to test drugs 30 min. before treatment with 5 x 10-^6M histamine. The dose of test drugs producing 50%blockade of chronotropic response to histamine was obtained from each preparation.

Male Wistar rats [2] = experiment: Gastric secretion inhibiting activity (pylorus-ligated rat, 4hr. shay rat); type: in vivo
Method: 2) Gastric secretion inhibiting activity: Male Wistar rats (about 200 g) were fasted but allowed free access to water for 24 hours prior to the experiment. The pylorus was ligated after abdominal midline incision under ether anesthesia. Four hours later, the animals were killed for the collection of gastric juice. The test compounds were given p.o. 1 hour before the pylorus ligation. Gastric juice (0.5 ml) was titrated against 0.05 N NaOH up to pH 7.0 to determine acid concentration using an automatic titrator (Hiranuma Sangyo Co., Comtite 7). The total acid output was calculated as the product of gastric volume by acid concentration.

Acute toxicity LD50 iv = details: in vivo, species not given
[3] = po, 1 h, p.o., absolute ethanol (1 ml/rat) orally one hour after test compound; gastric lesions measured one hour later; read-out: 3)Cytopro-tection ethanol ulcer rat ED50(mg/kg p.o.)
[4] = Rattus norvegicus, po, 4 h; p.o. 1 hour before pylorus ligation; gastric juice collected four hours later; total acid output; read-out: 2)Anti-secretion 4hr. shay rat ED50 (mg/kg p.o.)

pIC50 (histamine H2-receptor)	SMILES	ED50 (Male Wistar rats [1]; [3])	ED50 (Male Wistar rats [2]; [4])	ED50 (Male Wistar rats [1]; Rattus norvegicus, po, 1 h, read-out: 3)Cytopro-tection ethanol ulcer rat ED50(mg/kg p.o.))	ED50 (Male Wistar rats [2]; Rattus norvegicus, po, 4 h, read-out: 2)Anti-secretion 4hr. shay rat ED50 (mg/kg p.o.))	LD50 (Acute toxicity LD50 iv)
< 6.00	CCCCCCCc1c(C)[nH]c(NCCCOc2cccc(CN3CCCCC3)c2)nc1=O [Example 1, 5-heptyl-6-methyl-2-[3-[m-(piperidinomethyl)phenoxy]-propylamino]-4(lH)-pyrimidone di-hydrochloride]	6 mg/kg	2.6 mg/kg			
6.68	C#CCc1c(C)[nH]c(NCCCOc2cccc(CN3CCCCC3)c2)nc1=O [Example 9]	23.3 mg/kg	3.1 mg/kg			
6.40	CCSCCc1c(C)[nH]c(NCCCOc2cccc(CN3CCCCC3)c2)nc1=O [Example 15, 5-(2-Ethylthioethyl)-6-methyl-2-[3-[m-(piperidinomethyl)phenoxy]propylamino]-4(lH)-pyrimidone]	25.4 mg/kg	10.9 mg/kg			
5.05	CCCCCc1c(CC)[nH]c(NCCCOc2cccc(CN3CCCCC3)c2)nc1=O [Example 5, 6-Ethyl-5-pentyl-2-f3-[m-(piperidinomethyl)phenoxy]-propylamino]-4(lH)-pyrimidone dihydrochloride-dihydrate]	9.6 mg/kg	19 mg/kg			
6.09	CC=CCc1c(C)[nH]c(NCCCOc2cccc(CN3CCCC3)c2)nc1=O [Example 14, 5-(2-Butenyl)-6-methyl-2-[3-[m-(pyrrolidinylmethyl)-phenoxy]propylamino]-4(1H)-pyrimidone]	41.4 mg/kg	9.9 mg/kg			
6.44	CC(C)=CCc1c(C)[nH]c(NCCCOc2cccc(CN3CCCCC3)c2)nc1=O [Example 26, 6-methyl-5-(3-methyl-2-butenyl)-2-[3-[m-(piperidinomethyl)phenoxy]propylamino]-4(1H)-pyrimidone]	20.5 mg/kg	5.2 mg/kg			
6.54	C=C(C)Cc1c(C)[nH]c(NCCCOc2cccc(CN3CCCC(C)C3)c2)nc1=O (centres unmarked) [Example 31, 6-Methyl-2-[3-[m-(3-methylpiperidinomethyl)pheno- : xy]propylamino]-5-(2-methyl-2-propenyl)-4(lH)-pyrimidone]	13.6 mg/kg	30.1 mg/kg			
6.77	C=CCc1c(C)[nH]c(NCCCOc2cccc(CN3CCCC(C)C3)c2)nc1=O (centres unmarked) [Example 30, 5-(2-Propenyl)-6-me thyl-2-[3-[m-(3-methylpiperidi-nomethyl)phenoxy]propylamino]-4(lH)-pyrimidone]	17 mg/kg	18 mg/kg			
6.29	CCCc1c(C)[nH]c(NCCCOc2cccc(CN3CCCCC3)c2)nc1=O [Example 7, 6-Methyl-2-[3-[m-(piperidinomethyl)phenoxy]propylamino]-5-propyl-4(lH)-pyrimidone]	6.6 mg/kg	6.1 mg/kg			

SMILES	pIC50 (histamine H2-receptor)	ED50 (Male Wistar rats [1]; [3])	ED50 (Male Wistar rats [2]; [4])	ED50 (Male Wistar rats [1]; Rattus norvegicus, po, 1 h, read-out: 3)Cytopro-tection ethanol ulcer rat ED50(mg/kg p.o.))	ED50 (Male Wistar rats [2]; Rattus norvegicus, po, 4 h, read-out: 2)Anti-secretion 4hr. shay rat ED50 (mg/kg p.o.))	LD50 (Acute toxicity LD50 iv)
CC(=O)OCC(=O)NCCCOc1cccc(CN2CCCCC2)c1 [TZU-0460, N-[3-(3-(1-piperi-dinylmethyl)phenoxy]propyl]acetoxyacetamide hydrochloride, reference compound]	6.43			46.4 mg/kg	35.1 mg/kg	
CC=CCc1c(C)[nH]c(NCCCOc2cccc(CN3CCCC(C)C3)c2)nc1=O (centres unmarked) [Example 12, 5-(2-Butenyl)-6-methyl-2-[3-[m-(3-methylpiperidino-methyl)phenoxy]propylamino]-4(1H)-pyrimidone]	6.21	6.7 mg/kg	16.4 mg/kg			42.5 mg/kg
CCCCc1c(C)[nH]c(NCCCOc2cccc(CN3CCCCC3)c2)nc1=O [Example 4, 5-butyl-6-methyl-2-L3-[m-(piperidinomethyl)phenoxy]propylamino]-4(1H)-pyrimidone dihydrochloride]	6.38	5.8 mg/kg	6.4 mg/kg			61.1 mg/kg
